Results on four compounds are retold here after US20220323402A1, “TREATMENT, AMELIORATION OR PREVENTION OF A VIRAL INFECTION” (priority 2019, published 2022).

For data set [1], the system named is ZIKV (Puerto Rico strain, PRVABC59). Description: Flow cytometry quantification of HepG2 cells positive for Flavivirus antigen after ZIKV infection. The conditions noted are these: HepG2, ZIKV moi=1, 48 h; FIG. 7C. The data set is classed as cell-based, Zika virus. As for the experimental part:
FIGS. 7A-7K: AHR signaling boosts ZIKV replication in vitro. Flow cytometry quantification of HepG2 cells positive for Flavivirus antigen. HepG2 cells were pre-treated with different concentrations of I3S, CH223191 or DMSO (vehicle) and infected with ZIKV (moi=1) for 48 h. Plots shown are representative of one experiment. Bar graphs (FIG. 7C) represent the mean+s.e.m. of Flavivirus antigen positive cells from at least three independent experiments. P values were determined by a one-way ANOVA followed by Tukey's post-hoc test.
Stock solutions of I3S and CH223191 were prepared in DMSO, aliquoted and stored according to manufacturer's instructions. For CH223191, cells were pre-treated for 90 minutes and then used for further studies. For I3S, cells were pre-treated overnight.
Cells were fixed and permeabilized using Cytofix/Cytoperm (BD Biosciences). Secondary antibody for flow cytometry was phycoerythrin (PE) goat anti-mouse IgG (BD Biosciences) at a concentration of 1:200. Cells were analyzed on a Guava easyCyte flow cytometer and data was processed using FlowJo software.
For orientation: A flow cytometer gives signals particle by particle.

For another data set, the system named is Cell cultures. Description: Cell viability by MTT assay. The data set is classed as cell-based. The settings on record: at the concentrations tested; FIGS. 9A-9B. How it is done:
FIGS. 9A and 9B: Toxicity of I3S and CH223191. Cell viability after treatment for 24 h with different concentrations of I3S (FIG. 9A) and CH223191 (FIG. 9B) evaluated by MTT assay.
Cell cultures grown in 96-well plates were exposed for 48 h to serial two-fold compound dilutions, three wells for each concentration and viability was measured with 3-(4,5-dimethylthiazol-2-yl)-2,5-diphenyl tetrazolium bromide (MTT, Sigma-Aldrich).

Data set [2] relates to AHR. As to the kind of experiment: AHR modulation in NPCs, qPCR of AHR, CYP1A1, IDO1 and TDO2. The data set is classed as cell-based, human. The conditions noted are these: at the concentrations tested; NPCs 24 h; FIGS. 10A-10D. How it is done: FIGS. 10A-10D: AHR modulation in NPCs. NPCs were treated with I3S or a combination of I3S and CH223191. 24 h after treatment, NPCs were harvested for RNA extraction followed by qPCR analysis of AHR (FIG. 10A), CYP1A1 (FIG. 10B), IDO1 (FIG. 100) and TDO2 (FIG. 10D). Data represent the mean+s.e.m. from three independent experiments. P values were determined by Student's t-test.
RNA was extracted using the RNAeasy kit (Qiagen). cDNA was synthesized using the High-Capacity cDNA Reverse Transcription kit (Applied Biosystems) and qPCR was performed using TaqMan Fast Advanced Master Mix (Applied Biosystems). Gene expression was normalized to GAPDH. Primers and probes (Applied Biosystems) were: GAPDH Hs02786624_g1, IFNB1 Hs01077958_s1, AHR Hs00169233_m1, PML Hs00971694_m1, CYP1A1 Hs01054796_g1, IFITM1 Hs00705137_s1, CYP1B1 Hs02382916_s1, CXCL10 Hs00171042_m1, IDO1 Hs00984148_m1, IDO2 Hs01589373_m1, IFITM Hs00705137_s1, TDO Hs00194611_m1. Primers and probes for the specific detection of Zika virus RNA were utilized as previously described^81, 82. For viral load determination in vivo, brains and spleens from pups were macerated on trizol (Invitrogen) for RNA extraction. RNA pellets were resuspended in RNase-free water and quantified by spectrophotometry (NanoDrop—Thermo Scientific) and stored at −80° C. […] Quantification was compared with threshold cycle (Ct) value with a ZIKV plasmid standard curve.
On the technique in general: Quantitative PCR measures a nucleic acid by following its amplification.

Data set [3] concerns AHR. As to the kind of experiment: AHR modulation in A549 cells, qPCR of AHR and CYP1A1. The data set is classed as cell-based. The conditions noted are these: 24 h; FIG. 61. How it is done:
FIGS. 61A and 61B: AHR modulation by small molecules in A549 cells. A549 cells were treated with the indicated concentrations of I3S (FIG. 61A) or CH223191 (FIG. 61B) for 24 h. Then, cells were harvested for RNA extraction and qPCR analysis of AHR and CYP1A1.

Data set [4] deals with DENV-1, DENV-2, DENV-3, DENV-4. As to the kind of experiment: DENV plaque assay of supernatants of A549 cells. The data set is classed as cell-based, dengue virus. The conditions noted are these: A549 pretreated 24 h, moi=0.1; FIG. 62. As for the experimental part: FIG. 62: AHR activation boosts DENV replication. A549 cells were pretreated with the indicated concentrations of I3S for 24 h and infected with DENV-2 (moi=0.1). 48 h p.i. supernatants were harvested for plaque assay.
FIGS. 63A-63D: AHR modulation affects DENV replication. Infectious virus particles in the supernatants of A549 cells pre-treated with CH2213191 and infected with DENV-1 (FIG. 63A), DENV-2 (FIG. 63B), DENV-3 (FIG. 63C) or DENV-4 (FIG. 63D) (moi=0.1). At 24 h p.i. supernatants were harvested for plaque assay.

A further data set has as its system ZIKV. Description: Effect of inhibitors of IFN signaling on ZIKV replication in HepG2 cells, plaque assay. The data set is classed as cell-based, Zika virus. The conditions noted are these: HepG2 pre-treated 24 h, plaque assay 24 h p.i.; FIG. 22. As for the experimental part: HepG2 cells were pre-treated with DMSO (vehicle), JAK I Inhibitor, TSA, or NaF for 24 h and infected with ZIKV. Data represent the mean+s.e.m. from three independent experiments. P values were determined by a one-way ANOVA followed by Tukey's post-hoc test.
I3S (Indoxyl 3-sulfate, Sigma, used at 50-500 μM as indicated for each experiment), CH223191 (Tocris, used at 2-30 μM), Sodium fluoride (Sigma, 1 mM), Trichostatin A (Sigma, 100 nM), JAK I Inhibitor (Santa Cruz Biotechnology, 1 μM). HP163 was the generous gift of Hercules Pharmaceuticals, BV, (Galileiweg 8, 2333 BD, The Netherlands). CB7993113 has been described previously^80. HP163, is a monoalkylated amide of CB7993113 optimally formulated in a 5% tween, 45% PEG, 50% saline mixture. […] The structural formulas of the compounds used in this study are reproduced below.

Consider `O=S(=O)(O)Oc1c[nH]c2ccccc12` [I3S, Indoxyl 3-sulfate], for which, in data set [1], the “percentage of HepG2 cells expressing viral antigen” value was “increased”. In addition, in the data set on Cell cultures, the cytotoxic effects entry was “no cytotoxic effects were detected”. Moreover, in the data set on AHR [2], the “AHR inhibition / activation” value is given as “activation”. Further, the “AHR activation in A549 cells” value in the data set with AHR [3] is on record as “activated”. Also, the “yield of the four DENV serotypes” value in data set [4] is listed as “increased”.
For `[F-].[Na+]` [NaF, Sodium fluoride], in the data set on ZIKV, the “ZIKV replication in presence of drugs that block IFN-I signaling” value is recorded as “increase”.
In the case of JAK inhibitor I, the “ZIKV replication in presence of drugs that block IFN-I signaling” value in the data set on ZIKV is “increase”.
The same measure, in the same setting: the same measure for `CC(/C=C/C(=O)NO)=C\[C@@H](C)C(=O)c1ccc(N(C)C)cc1` [trichostatin A]: “increase”.
